Where a name gives a salt, the structure may show the parent alone.
Columns and labels:
[1] = Antihypertensive activity, spontaneous hypertensive rat, indirect tail cuff method; assay type: in vivo; conditions: three days, measured on third day
Description: The spiro[benzofuran-2(3H),1'-cycloheptane]s of formula I of the present invention are useful as antihypertensive agents due to their ability to depress blood pressure in mammals. Antihypertensive activity is measured in the spontaneous hypertensive rat by the indirect tail cuff method described in "Methods in Pharmacology", A. Schwartz, Ed., Vol. I, Appleton-Century Crofts, New York, N. Y., 1971, p. 135. In this procedure a group of five animals are treated orally for three days with the test compound in relation to a control group of the same number. The drop in blood pressure is measured on the third day following administration. The antihypertensive activities of some of the compounds, expressed as a decrease in mean arterial blood pressure (in mm Hg), are given in Table I.

[2] = Anticonvulsant activity, supramaximal electroshock assay (SES); assay type: in vivo, mice; conditions: Mus musculus, ip
Description: Compounds I of the present invention are useful as anticonvulsant agents. […] Groups of male mice (18-30 grams) are used. Drugs are prepared using distilled water and if insoluble, a surfactant is added. Control animals receive vehicle. Drugs are routinely administered intraperitoneally. The dosage volume is 10 ml/kg.
The animal's eyes are placed across the output terminals of an A.C. shocker that delivers 206 volts rms for 300 milliseconds. Electrode paste coats the animal's eyes at the point of contact with the terminals.
Protection is expressed as normalized percent inhibition relative to vehicle control. [formula]
A time response is carried out using 6 animals per group. Animals are tested at 30, 60 and 120 minutes postdrug. Additional time periods are tested if indicated by previous tests.
When the peak activity time has been determined, a dose response is initiated, using 10 animals per group at that time period. The ED50 and 95% confidence interval are calculated by computerized probit analysis.

[3] = Analgesic activity, 2-phenyl-1,4-benzoquinone-induced writhing test; assay type: in vivo, mice
Description: Compounds I of the present invention are useful as analgesic agents due to their ability to alleviate pain in mammals. […] Exptl. Biol. Med., 95, 729 (1957)].

[4] = Inhibition of tetrabenazine-induced ptosis (antidepressant activity); assay type: in vivo, mice; conditions: Mus musculus, ip, 0.5 h; i.p.; tetrabenazine 40 mg/kg i.p. 30 minutes after
Description: Compounds I of the present invention are useful as antidepressant agents due to their ability to prevent tetrabenazine induced ptosis in mice. The method used is as follows.
Male mice weighing 20 to 30 grams are used in test groups of five subjects. All compounds are dissolved, or suspended with one drop of a non-ionic surfactant in distilled water and administered in volumes of 10 ml/kg of body weight. Tetrabenazine (TBZ) solution is made from methanesulfonate salt and the concentration is adjusted to enable the administration of 40 mg/kg of base by intraperitoneal injection (i.p.).
If the test compound is administered intraperitoneally, TBZ is injected 30 minutes after administration. If the test compound is administered orally (p.o.), TBZ is injected 60 minutes after the administration. A control group received solvent and TBZ by the same route and at the same intervals as the drug groups.
Thirty and sixty minutes after TBZ injection the subjects are placed in individual plastic containers (10/1/2"×8"×6") and one minute after transfer they are scored for ptosis on the followig scale: eyes closed=4, eyes 3/4 closed=3, eyes 1/2 closed=2, eyes 1/4 closed=1, and eyes open=0. The total score for each group of five will therefore be from 0 to 20 and these scores are used as indications of drug activity.
The vehicle-control group score is used as a determinate of the validity of each test. […]

With CN(C)CCC=C1c2ccccc2OC12CCCCCC2 as the compound, how does the “Blood Pressure Drop” value ([1]; 50 mg/kg p.o.) read?
Its value is 32 mm Hg.

With CN(C)CCCC1c2ccccc2OC12CCCCCC2 (stereo not shown) [3-(3-Dimethylaminopropyl)-spiro[benzofuran-2(3H),1'-cycloheptane]hydrochloride] as the compound, how does the ED50 [2] read?
Its ED50 is 30.6 mg/kg.

Which “% Inhibition at 20 mg/kg, s.c.” value [3] does the source give for CN(C)CCCC1c2cc(Cl)ccc2OC12CCCCCC2.Cl (stereo not shown) [5-Chloro-3-(3-dimethylaminopropyl)-spiro[benzofuran-2(3H),1'-cycloheptane] hydrochloride] here?
The value was 40%.

What does the source list for CN(C)CCO/N=C1/c2ccccc2OC12CCCCCC2 [(Z)-O-Dimethylaminoethyl-spiro[benzofuran-2(3H),1'-cycloheptan]-3-one oxime maleate]?
ED50 [4]: 72.5 mg/kg; ED50 [2]: 30.2 mg/kg

For CC(C)NCC(O)CO/N=C1/c2ccccc2OC12CCCCCC2 (stereo not shown) [(Z)-O-[3-[(1-Methylethyl)amino]-2-hydroxypropyl]spiro[benzofuran-2(3H),1'-cycloheptan]-3-one oxime maleate], which “% Inhibition at 20 mg/kg, s.c.” value [3] is on record?
Its value is 40%.

With CNC1=Nc2ccc(Cl)cc2C(c2ccccc2)=[N+]([O-])C1 [Chlordiazepoxide, reference compound] as the compound, how does the ED50 [2] read?
Its ED50 is 8 mg/kg.

With CN(CCCC1c2ccccc2OC12CCCCCC2)CCc1ccccc1.O=C(O)/C=C/C(=O)O (stereo not shown) [N-Methyl-N-(2-phenylethyl)-spiro[benzofuran-2(3H),1'-cycloheptane]-3-propanamine fumarate] as the compound, how does the “Blood Pressure Drop” value ([1]; 50 mg/kg p.o.) read?
The value was 76 mm Hg.

For CN(CCCC1c2ccccc2OC12CCCCCC2)Cc1ccccc1 (stereo not shown) [N-Methyl-N-[3-[spiro[benzofuran-2(3H),1'-cyclohept-3-yl]]propyl]benzenemethanamine maleate], which “% Inhibition at 20 mg/kg, s.c.” value [3] is on record?
Its value is 54%.

With CN(CCCC(c1ccc(F)cc1)c1ccc(F)cc1)CCCC1c2ccccc2OC12CCCCCC2 (stereo not shown) [N-[4-[Bis(4-fluorophenyl)]-butyl]-N-methyl-spiro[benzofuran-2(3H),1'-cycloheptane]-3-propanamine fumarate] as the compound, how does the “% Inhibition at 20 mg/kg, s.c.” value [3] read?
The value was 70%.

What about the “Blood Pressure Drop” value ([1]; 30 mg/kg p.o.) of the same compound?
Its value is 61 mm Hg.

For CCC(=O)O[C@](Cc1ccccc1)(c1ccccc1)[C@H](C)CN(C)C [Propoxyphene, reference compound], which ED50 ([3]; Mus musculus, sc) is on record?
Its ED50 is 3.9 mg/kg.

With C[C@](N)(Cc1ccc(O)c(O)c1)C(=O)O [alpha-Methyldopa, reference compound] as the compound, how does the “Blood Pressure Drop” value ([1]; 50 mg/kg p.o.) read?
Its value is 40 mm Hg.
